The values below come from patent publication US7592336B2, “Hepatitis C virus inhibitors” (Bristol-Myers Squibb Company, priority 2005, dated 2009).

Like-named read-outs stand apart in the source and are kept apart here.

Experiment [1] addresses T1, porcine pancreatic elastase (PPE) (Sus scrofa, UniProt P00772).
T1 construct: purchased Sigma
As to the kind of experiment: Specificity assay, porcine pancreatic elastase. Particulars: 2 h enzyme-inhibitor pre-incubation; read-out: PPE activity in the specificity assays (IC50). Type of experiment: biochemical. As for the experimental part:
(§1) The specificities of compounds of the present disclosure were determined against a variety of serine proteases: human neutrophil elastase (HNE), porcine pancreatic elastase (PPE) and human pancreatic chymotrypsin and one cysteine protease: human liver cathepsin B. In all cases a 96-well plate format protocol using calorimetric p-nitroaniline (pNA) substrate specific for each enzyme was used as described previously (PCT Patent Application No. WO 00/09543) with some modifications to the serine protease assays. All enzymes were purchased from Sigma while the substrates were from Bachem.
(§2) Each assay included a 2 h enzyme-inhibitor pre-incubation at room temperature followed by addition of substrate and hydrolysis to 30% conversion as measured on a Spectramax Pro microplate reader. Compound concentrations varied from 100 to 0.4 μM depending on their potency. […]
(§3) The percentage of inhibition was calculated using the formula: [1−((UVinh−UVblank)/(UVctl−UVblank))]×100 […]

In experiment [2] the target is T2, HCV NS3/4A protease complex, BMS strain (UniProt P27958, species not given/STRAIN_BMS).
T2 construct: said of H77 and J4L6S, not expressly of BMS; fused on or other part: A three-lysine solubilising tail at the NS4A C-terminus and purification on Ni-NTA are described for the H77 and J4L6S constructs
As to the kind of experiment: FRET peptide assay to monitor HCV NS3/4A proteolytic activity (BMS strain). Format: biochemical, HCV genotype 1a. An excerpt:
HCV NS3 protease complexes, derived from the BMS strain, H77 strain or J4L6S strain, were generated, as described below. These purified recombinant proteins were generated for use in a homogeneous assay (see below) to provide an indication of how effective compounds of the present disclosure would be in inhibiting HCV NS3 proteolytic activity.
Serum from an HCV-infected patient was obtained from Dr. T. Wright, San Francisco Hospital. An engineered full-length cDNA (compliment deoxyribonucleic acid) template of the HCV genome (BMS strain) was constructed from DNA fragments obtained by reverse transcription-PCR (RT-PCR) of serum RNA (ribonucleic acid) and using primers selected on the basis of homology between other genotype 1a strains. From the determination of the entire genome sequence, a genotype 1a was assigned to the HCV isolate according to the classification of Simmonds et al. (See P Simmonds, K A Rose, S Graham, S W Chan, F McOmish, B C Dow, E A Follett, P L Yap and H Marsden, J. Clin. Microbiol., 31(6), 1493-1503 (1993)). […] The infectious clones, H77 (1a genotype) and J4L6S (1b genotype) were obtained from R. Purcell (NIH) and the sequences are published in Genbank (AAB67036, see Yanagi, M., Purcell, R. H., Emerson, S. U. and Bukh, J. Proc. Natl. Acad. Sci. U.S.A. 94(16), 8738-8743 (1997); AF054247, see Yanagi, M., St Claire, M., Shapiro, M., Emerson, S. U., Purcell, R. H. and Bukh, J, Virology 244 (1), 161-172. (1998)).
NS3/4A protease complex-containing fractions were pooled and loaded on a desalting column Superdex-S200 pre-equilibrated with buffer D (25 mM HEPES, pH 7.5, 20% glycerol, 300 mM NaCl, 0.2% Triton X-100, 10 mM βME). Sample was loaded at a flow rate of 1 mL/min. NS3/4A protease complex-containing fractions were pooled and concentrated to approximately 0.5 mg/ml. The purity of the NS3/4A protease complexes, derived from the BMS, H77 and J4L6S strains, were judged to be greater than 90% by SDS-PAGE and mass spectrometry analyses. The enzyme was stored at −80° C., thawed on ice and diluted prior to use in assay buffer.
The purpose of this in vitro assay was to measure the inhibition of HCV NS3 protease complexes, derived from the BMS strain, H77 strain or J4L6S strain, as described above, by compounds of the present disclosure. This assay provides an indication of how effective compounds of the present disclosure would be in inhibiting HCV NS3 proteolytic activity.
In order to monitor HCV NS3/4A protease activity, an NS3/4A peptide substrate was used. The substrate was RET S1 (Resonance Energy Transfer Depsipeptide Substrate; AnaSpec, Inc. cat #22991) (FRET peptide), described by Taliani et al. in Anal. Biochem. 240(2):60-67 (1996). The sequence of this peptide is loosely based on the NS4A/NS4B natural cleavage site for the HCV NS3 protease except there is an ester linkage rather than an amide bond at the cleavage site. The peptide also contains a fluorescence donor, EDANS, near one end of the peptide and an acceptor, DABCYL, near the other end. The fluorescence of the peptide is quenched by […] resonance energy transfer (RET) between the donor and the acceptor, but as the NS3 protease cleaves the peptide the products are released from RET quenching and the fluorescence of the donor becomes apparent.
The peptide substrate was incubated with one of the three recombinant NS3/4A protease complexes, in the absence or presence of a compound of the present disclosure. The inhibitory effects of a compound were determined by monitoring the formation of fluorescent reaction product in real time using a Cytofluor Series 4000.
Assay buffer: 50 mM HEPES, pH 7.5; 0.15M NaCl; 0.1% Triton; 15% Glycerol; 10 mM βME. Substrate: 2 μM final concentration (from a 2 mM stock solution in DMSO stored at −20° C.). HCV NS3/4A protease type 1a (1b), 2-3 nM final concentration (from a 5 μM stock solution in 25 mM HEPES, pH 7.5, 20% glycerol, 300 mM NaCl, 0.2% Triton-X100, 10 mM βME). […]

A further experiment concerns the target T3, human liver cathepsin B (Homo sapiens, UniProt P07858).
T3 construct: purchased Sigma; host or cells: human liver
As to the kind of experiment: Specificity assay, cathepsin B. Type of experiment: biochemical. Particulars: 2 h enzyme-inhibitor pre-incubation; read-out: Cathepsin B activity in the specificity assays (IC50). As for the experimental part:
as §1, §2, §3

T2 sequence (P27958 1027-1657, change not shown, one chain of several): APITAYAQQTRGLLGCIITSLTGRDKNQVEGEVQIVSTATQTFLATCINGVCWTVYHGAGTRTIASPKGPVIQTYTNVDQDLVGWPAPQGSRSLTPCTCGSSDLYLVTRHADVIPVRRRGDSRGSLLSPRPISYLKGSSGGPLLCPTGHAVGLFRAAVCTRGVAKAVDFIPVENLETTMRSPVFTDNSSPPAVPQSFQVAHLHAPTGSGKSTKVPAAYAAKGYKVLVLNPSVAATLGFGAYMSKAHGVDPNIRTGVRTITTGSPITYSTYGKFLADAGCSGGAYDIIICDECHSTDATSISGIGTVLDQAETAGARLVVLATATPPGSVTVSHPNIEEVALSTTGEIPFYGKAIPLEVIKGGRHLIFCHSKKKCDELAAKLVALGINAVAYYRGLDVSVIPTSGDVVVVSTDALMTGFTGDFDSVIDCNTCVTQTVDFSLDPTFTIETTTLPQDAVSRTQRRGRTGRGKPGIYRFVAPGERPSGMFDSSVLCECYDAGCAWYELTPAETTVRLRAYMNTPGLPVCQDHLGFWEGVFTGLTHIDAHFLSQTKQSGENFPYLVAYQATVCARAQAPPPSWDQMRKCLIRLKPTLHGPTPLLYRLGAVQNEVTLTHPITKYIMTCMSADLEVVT
T1 sequence (P00772 27-266): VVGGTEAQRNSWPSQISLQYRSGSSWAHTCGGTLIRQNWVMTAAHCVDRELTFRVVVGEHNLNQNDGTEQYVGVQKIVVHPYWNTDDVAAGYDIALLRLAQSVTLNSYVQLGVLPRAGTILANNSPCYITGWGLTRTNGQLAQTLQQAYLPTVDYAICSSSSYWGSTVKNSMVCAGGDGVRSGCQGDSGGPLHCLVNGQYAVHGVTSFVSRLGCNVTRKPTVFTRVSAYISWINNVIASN

With `C=C[C@@H]1C[C@]1(NC(=O)[C@@H]1C[C@@](O)(c2ccc(-c3ccccc3)cc2)CN1C(=O)[C@@H](NC(=O)OC(C)(C)C)C(C)(C)C)C(=O)NS(=O)(=O)C1CC1` [Compound 3], the IC50 in experiment [1] was above 100 µM; in experiment [2] (BMS strain, read-out: IC50 against the NS3/4A BMS strain in the enzyme assay), 0.004 µM; in experiment [2] (NS3/4A BMS strain, read-out: Activity Range (IC50)), 0.001 to 0.1 µM; on human liver cathepsin B, 2 µM.
